Tests used:
γ-secretase [1] = biological target: T1, γ-secretase (Homo sapiens, UniProt P49768); experiment: Screening for γ-secretase-modulating activity: Aβtotal in supernatant of SKNBE2 cells carrying hAPP 695 wild type (Alphalisa); assay type: cell-based; conditions: SKNBE2 human neuroblastoma cells carrying hAPP 695 wild type, overnight incubation, Aβtotal in cell supernatant
T1 construct: endogenous in cells; host or cells: SKNBE2 human neuroblastoma cells (carrying hAPP 695 wild type as substrate)
Method: (§1) Screening was carried out using SKNBE2 human neuroblastoma cells carrying the hAPP 695—wild type, grown in Dulbecco's Modified Eagle's Medium/Nutrient mixture F-12 (DMEM/NUT-mix F-12) (HAM) provided by Invitrogen (cat no. 10371-029) containing 5% Serum/Fe supplemented with 1% non-essential amino acids, 1-glutamine 2 mM, Hepes 15 mM, penicillin 50 U/ml (units/ml) en streptomycin 50 μg/ml. Cells were grown to near confluency.
(§2) The screening was performed using a modification of the assay as described in Citron et al (1997) Nature Medicine 3: 67. Briefly, cells were plated in a 384-well plate at 10^4 cells/well in Ultraculture (Lonza, BE12-725F) supplemented with 1% glutamine (Invitrogen, 25030-024), 1% non-essential amino acid (NEAA), penicillin 50 U/ml en streptomycin 50 μg/ml in the presence of test compound at different test concentrations. The cell/compound mixture was incubated overnight at 37° C., 5% CO2. The next day the media were assayed by two sandwich immuno-assays, for Aβ42 and Aβ total.
(§3) Aβtotal and Aβ42 concentrations were quantified in the cell supernatant using the Aphalisa technology (Perkin Elmer). Alphalisa is a sandwich assay using biotinylated antibody attached to streptavidin coated donorbeads and antibody conjugated to acceptor beads. In the presence of antigen, the beads come into close proximity. The excitation of the donor beads provokes the release of singlet oxygen molecules that trigger a cascade of energy transfer in the acceptor beads, resulting in light emission. To quantify the amount of Aβ42 in the cell supernatant, monoclonal antibody specific to the C-terminus of Aβ42 (JRF/cAβ42/26) was coupled to the receptor beads and biotinylated antibody specific to the N-terminus of Aβ (JRF/AβN/25) was used to react with the donor beads. To quantify the amount of Aβtotal in the cell supernatant, monoclonal antibody specific to the N-terminus of Aβ (JRF/AβN/25) was coupled to the receptor beads and biotinylated antibody specific to the mid region of Aβ (biotinylated 4G8) was used to react with the donor beads.
(§4) To obtain the values reported in Table 3, the data are calculated as percentage of the maximum amount of amyloid Beta 42 measured in the absence of the test compound. The sigmoidal dose response curves were analyzed using non-linear regression analysis with percentage of the control plotted against the log concentration of the compound. A 4-parameter equation was used to determine the IC50.

γ-secretase [2] = biological target: T1, γ-secretase; experiment: Screening for γ-secretase-modulating activity: Aβ42 in supernatant of SKNBE2 cells carrying hAPP 695 wild type (Alphalisa); assay type: cell-based; conditions: SKNBE2 human neuroblastoma cells carrying hAPP 695 wild type, overnight incubation, Aβ42 in cell supernatant
Method: as §1, §2, §3, §4

Compound	IC50 (γ-secretase [1])	IC50 (γ-secretase [2])
Cc1cn(-c2ccc3n(c2=O)CCN(CCCC(C)(C)C)C3=O)cn1 [compound 15]	> 10 µM	2.29 µM
CCCc1nccn1-c1ccc2n(c1=O)CCN(CCC1CC1)C2=O [compound 16]	> 10 µM	> 10 µM
CCCc1nccn1-c1ccc2n(c1=O)CCN(CC1CC1)C2=O [compound 17]	> 10 µM	> 10 µM
Cc1cn(-c2ccc3n(c2=O)CCN(Cc2ccccc2)C3=O)cn1 [compound 19]	> 10 µM	6.76 µM
Cc1cn(-c2ccc3n(c2=O)C[C@@H](C)N(Cc2cccc(Cl)c2)C3=O)cn1 [compound 24]	> 10 µM	1.1 µM
Cc1cn(-c2ccc3n(c2=O)C[C@@H](C2CC2)N(Cc2ccc(Cl)c(Cl)c2)C3=O)cn1 [compound 33]	> 10 µM	1.66 µM
Cc1cn(-c2ccc3n(c2=O)CCN(Cc2cccc(Cl)c2F)C3=O)cn1 [compound 39]	> 10 µM	0.95 µM
Cc1cn(-c2ccc3n(c2=O)CCN(c2ccc(F)cc2C)C3=O)cn1 [compound 41]	> 10 µM	> 10 µM
Cc1cn(-c2ccc3n(c2=O)C[C@@H](CO)N(Cc2cc(C(F)(F)F)cc(C(F)(F)F)c2)C3=O)cn1 [compound 45]	> 10 µM	0.54 µM
COC[C@@H]1Cn2c(ccc(-n3cnc(C)c3)c2=O)C(=O)N1Cc1cc(C(F)(F)F)cc(C(F)(F)F)c1 [compound 47]	> 10 µM	0.26 µM
Cc1cn(-c2ccc3n(c2=O)C[C@@H](CN(C)C)N(Cc2cc(C(F)(F)F)cc(C(F)(F)F)c2)C3=O)cn1 [compound 48]	> 10 µM	0.58 µM
CNC[C@@H]1Cn2c(ccc(-n3cnc(C)c3)c2=O)C(=O)N1Cc1cc(C(F)(F)F)cc(C(F)(F)F)c1 [compound 49]	> 10 µM	3.39 µM
Cc1cn(-c2ccc3n(c2=O)CCN(C(c2cc(C(F)(F)F)cc(C(F)(F)F)c2)C2CCOCC2)C3=O)cn1 (stereo not shown) [compound 51]	> 10 µM	0.5 µM
COCC(c1cc(C(F)(F)F)cc(C(F)(F)F)c1)N1CCn2c(ccc(-n3cnc(C)c3)c2=O)C1=O (stereo not shown) [compound 54]	> 10 µM	1.26 µM
Cc1cc(CN2CCn3c(ccc(-n4cnc(C)c4)c3=O)C2=O)cc(C(F)(F)F)c1 [compound 60]	> 10 µM	0.66 µM
Cc1cn(-c2ccc3n(c2=O)C[C@@H](C)N(Cc2cccc(C(F)(F)F)c2C)C3=O)cn1 [compound 61]	> 10 µM	0.48 µM
Cc1cn(-c2ccc3n(c2=O)CCN(Cc2cccc(C(F)(F)F)c2Cl)C3=O)cn1 [compound 64]	> 10 µM	0.69 µM
COc1cccc(CN2CCn3c(ccc(-n4cnc(C)c4)c3=O)C2=O)c1 [compound 66]	> 10 µM	3.89 µM
Cc1cn(-c2ccc3n(c2=O)C[C@@H](C)N(Cc2cc(C(F)(F)F)ccc2Cl)C3=O)cn1 [compound 71]	> 10 µM	0.28 µM
Cc1cn(-c2ccc3n(c2=O)C[C@@H](C)N(Cc2cc(C(F)(F)F)ccc2C)C3=O)cn1 [compound 72]	> 10 µM	0.19 µM
CCOCc1cc(CN2C(=O)c3ccc(-n4cnc(C)c4)c(=O)n3C[C@H]2C)cc(C(F)(F)F)c1 [compound 76]	> 10 µM	0.19 µM
COc1cc(C)c(CN2C(=O)c3ccc(-n4cnc(C)c4)c(=O)n3C[C@H]2C)cc1C(C)C [compound 77]	> 10 µM	0.19 µM
Cc1cn(-c2ccc3n(c2=O)C[C@@H](C)N(Cc2cccc(OC(F)(F)F)c2)C3=O)cn1 [compound 79]	> 10 µM	0.28 µM
Cc1cn(-c2ccc3n(c2=O)C[C@@H](C)N(Cc2cc(N4CCC(C(F)(F)F)CC4)ccc2Cl)C3=O)cn1 [compound 81]	> 10 µM	0.22 µM
Cc1cn(-c2ccc3n(c2=O)C[C@@H](C)N(Cc2cccc(-n4nc(C)cc4C)c2)C3=O)cn1 [compound 83]	> 10 µM	1.35 µM
Cc1cn(-c2ccc3n(c2=O)C[C@@H](C)N(Cc2ccc(Cl)c(N4CCCCC4)c2)C3=O)cn1 [compound 85]	> 10 µM	0.06 µM
